Assay results reported in article PMC3541007 (ChemMedChem, 2009).
pIC50, pKi: −log10 of the molar value. Converted amounts (≈) assume the structure as drawn. “And” between values parts separate entries of the source, which are not always exact repeats. Equal values may be shown once. Read-outs that look alike come from different tables or passages of the source.

How the values were obtained:
InhA [1] = settings: read-out: Ki against InhA; cited from earlier work
H37Rv = settings: cited from earlier work
M. tuberculosis H37Rv = format: cell-based; settings: wild-type, INH-sensitive, four weeks
[2] = system: M. tuberculosis H37Rv PmabAinhA (C-15T); format: cell-based; settings: for MIC H37Rv PmabAinhA (C-15T): four weeks
[3] = system: M. tuberculosis H37Rv ΔkatG; format: cell-based, Mycobacterium tuberculosis
InhA [4] = settings: read-out: InhA IC50; cited from earlier work

NC(=O)C1=CN([C@@H]2O[C@H](COP(=O)(O)OP(=O)(O)OC[C@H]3O[C@@H](n4cnc5c(N)ncnc54)[C@H](O)[C@@H]3O)[C@@H](O)[C@H]2O)C=C[C@@H]1C(=O)c1ccncc1 [INH-NAD]
pKi (InhA [1]): 8.30

CCc1cc(C(N)=S)ccn1 [ethionamide]
MIC (H37Rv): 18 µM (≈ 2.99 µg/mL)

5-n-butyltriclosan [Compound 10]
MIC H37Rv (M. tuberculosis H37Rv): 9.4 µg/mL | MIC H37Rv (M. tuberculosis H37Rv; value in parentheses): 30 µM | MIC H37Rv PmabAinhA (C-15T) [2]: 37 µg/mL | MIC H37Rv PmabAinhA (C-15T) ([2]; value in parentheses): 120 µM | MIC H37Rv ΔkatG [3]: 19 (60) µg/ml and 19 (60) µM

NNC(=O)c1ccncc1 [INH, isoniazid]
fold loss in potency versus InhA(C-15T) strain compared to wild-type ([2]; MIC ratio vs wild-type strain): 13 fold | MIC H37Rv ΔkatG [3]: >200 (>1400) µg/ml and >200 (>1400) µM

CCCCCCCCc1ccc(Oc2ccccc2)c(O)c1 [Sullivan’s n-octyl analog]
MIC vs. H37Rv (H37Rv; des-chloro analogs of Sullivan): 6.5 µM (≈ 1.94 µg/mL) | pIC50 (InhA [4]): 8.30
